Experimental data: patent US11986512B2, “Compositions and methods for cancer therapy” (Thetis Pharmaceuticals LLC, priority 2021, dated 2024)

Legend:
Type in all cases: in vivo, C57BL/6J male mice
Panc2-H7 cells = experiment: Panc2-H7 model of pancreatic cancer, with and without anti-PD1
Protocol: (§1) A representative compound of Formula IV, RvE1 magnesium dilysinate, was tested for efficacy in several mouse models of cancer, including the Panc2-H7 model of pancreatic cancer, the Lewis lung carcinoma (LLC) model, the MC38 model of colorectal cancer, and the B16F10 model of melanoma. These models are well established, highly tumorigenic syngeneic models in which murine cancer cell lines are injected subcutaneously (SC) into the dorsum of C57BL/6J mice. If left untreated, these tumors grow rapidly and lead to death or euthanasia, per protocol. As detailed below in Examples 1-9 and the accompanying figures, bis RvE1 Mg-di-lysinate (Compound 1) was unexpectedly effective as an anti-cancer agent in each of these model systems when administered in a less than daily (LTD) dosing regimen. […] Without being bound by any theory, the surprising efficacy of LTD dosing of resolvins in the cancer model systems described here may be the result of durable effects on the tumor microenvironment including changes in immune cell phenotype, vascularization, stromal phenotype, and antigen presentation, as well as durable effects on the T-cell compartment such as T-cell priming and increased tumor-infiltrating lymphocytes.
Over the last two decades, research on checkpoint inhibitors, including anti-PD(L)1 and anti-CTLA4, has focused on T-cells as a major therapeutic target. Waldman et al., Nat Rev Immunol. 2020; 20(11):651-668. In general, the response to treatment with immune checkpoint inhibitors requires the presence of CD4+ and CD8+ T cells in the tumor microenvironment. Li et al., Biochim Biophys Acta Rev Cancer. 2020; 1874(2):188439. […] Chiurchiu et al., Sci. Transl. Med. 2016; 8:353ra111; Mizraji et al., Front Immunol. 2018; 9:785; Oner et al., Front Immunol. 2021; 12:637983. In addition, resolvins can enhance the de novo generation and function of immunosuppressive T regulatory cells, which are associated with cancer progression and resistance to immune checkpoint inhibitors. Alvarez et al., Front Immunol. 2021; 12:664756; Togashi et al., Nat Rev Clin Oncol 2019; 16, 356-371. […]

LLC cells [1] = experiment: Lewis lung carcinoma (LLC) model, with and without anti-PD1 or cisplatin; settings: P<0.05
Protocol: as §1
To expand our understanding of bis RvE1 Mg-di-lysinate as a cancer therapy that could be used in combination with other cancer therapies including immune checkpoint inhibitors, bis RvE1 Mg-di-lysinate monotherapy and in combination either anti-PD1 or cisplatin was investigated in the LLC model of non-small cell lung cancer, which is a model known to unresponsive to anti-PD1 therapy and moderately responsive to cisplatin. Yu et al., J Exp Clin Cancer Res. 2010; 29(1):46; Lechner et al., J Immunother. 2013; 36(9):477-489. A total of forty (40) C57BL/6J male mice were injected subcutaneously with 1×10e6 living LLC cells. […] In addition, bis RvE1 Mg-di-lysinate was evaluated in combination with anti-PD1 or cisplatin. […]

LLC cells [2] = experiment: Metastatic LLC resection model, perioperative (neo-adjuvant) treatment; settings: 300 ug/kg, SC, Q6D, first dose 2 hours prior to surgery
Protocol: To investigate the efficacy of LTD dosing of bis RvE1 Mg-di-lysinate as neo-adjuvant therapy, a study was conducted in the metastatic LLC resection model with treatment initiated in the perioperative window. A total of fifteen (15) C57BL/6J male mice were injected subcutaneously with 1×10e6 living LLC cells. Once tumors reached approximately 1200-1500 mme3 in size, the mice were randomized (n=4-8 per group) to treatment with vehicle (SC, Q6D), bis RvE1 Mg-di-lysinate (300 ug/kg, SC, Q6D), or cisplatin (5 mg/kg, i.p, Q6D), followed by surgical resection of the tumors. The mice in the vehicle and cisplatin groups received an initial dose twenty-four (24) hours prior to surgery, and the mice treated with bis RvE1 Mg-di-lysinate received an initial dose two (2) hours prior to surgery. All mice were sacrificed on day 19 following the death of three mice in the vehicle control group on day 18.

KPC cells = experiment: Orthotopic KPC model of pancreatic cancer, survival
Protocol: To expand our understanding of less than daily (LTD) dosing of bis RvE1 Mg-di-lysinate as a cancer therapy that could be used in combination with chemotherapy, bis RvE1 Mg-di-lysinate (Compound 1) was investigated in the orthotopic KPC model of pancreatic cancer. A total of fifteen (15) C57BL/6J male mice were implanted orthotopically with 5×10e5 living KPC cells into the pancreas. The mice were randomized (n=7-8) to treatment with bis RvE1 Mg-di-lysinate (300 ug/kg, SC, Q6D) with or without gemcitabine (50 mg/kg, IP, Q3D, up to 6 doses) one day after tumor cell implantation.

Q: How did the tumor growth (Panc2-H7 cells; double combination: bis RvE1 Mg-di-lysinate 30 ug/kg SC plus anti-PD1 8 mg/kg IP Q3D, p<0.001 vs placebo and monotherapy groups) turn out when `CC[C@@H](O)/C=C/C=C\C[C@@H](O)/C=C/C=C/C=C\[C@@H](O)CCCC(=O)O` [bis RvE1 Mg-di-lysinate] was run?
A: significantly inhibited tumor growth relative to control

Q: And the “anti-cancer effect (tumor volume, Day 15 vs Day 0)” value (Panc2-H7 cells; monotherapy, 30 ug/kg, subcutaneous injection)?
A: did not have a significant anti-cancer effect

Q: And the tumor growth (Panc2-H7 cells; triple combination of bis RvE1 Mg-di-lysinate, anti-PD1 and gemcitabine)?
A: significantly inhibited tumor growth relative to control

Q: And the “tumor volume (Day 11 vs Day 0)” value (LLC cells [1]; bis RvE1 Mg-di-lysinate 30 ug/kg SC QD in combination with anti-PD1 8 mg/kg IP Q3D)?
A: reduced tumor volume compared to placebo and cisplatin and anti-PD1 alone

Q: And the “tumor volume (Day 11 vs Day 0)” value (LLC cells [1]; bis RvE1 Mg-di-lysinate 30 ug/kg SC QD in combination with cisplatin 5 mg/kg i.p Q5D)?
A: reduced tumor volume compared to placebo and cisplatin and anti-PD1 alone

Q: What about the “number of lung metastases” value (LLC cells [2]; compared to vehicle control and cisplatin, p<0.05) of the same molecule?
A: significantly reduced the number of lung metastases

Q: What about the “number of mice with metastasis in the axillary or inguinal lymph nodes” value (LLC cells [2]; compared to vehicle or cisplatin, p<0.01) of the same molecule?
A: significantly reduced the number of mice with metastasis in the axillary or inguinal lymph nodes

Q: What about the mean survival (KPC cells; bis RvE1 Mg-di-lysinate 300 ug/kg SC Q6D in combination with gemcitabine 50 mg/kg IP Q3D up to 6 doses) of the same molecule?
A: 129 days

Q: And the “mice alive as of the last observation (day 250)” value (KPC cells; bis RvE1 Mg-di-lysinate + gemcitabine combination group, three of the seven mice)?
A: 43%

Q: And the “increase in survival, combination versus gemcitabine monotherapy” value (KPC cells; bis RvE1 Mg-di-lysinate + gemcitabine, p<0.05)?
A: four-fold increase in survival
